ChEMBL document CHEMBL3217491, “Design, synthesis and biological evaluation of imidazopyridine/pyrimidine-chalcone derivatives as potential anticancer agents” (2010)
The source made the active and inactive calls. The calls are words filed in the database; no cut-off is given here.

Assays:
[1] = tested on: PC-3; assay: Growth inhibition of human PC3 cells after 48 hrs by SRB assay; type: functional; details: PC-3, 48 h
[2] = tested on: DU-145; assay: Growth inhibition of human DU145 cells after 48 hrs by SRB assay; type: functional; details: DU-145, 48 h
[3] = tested on: MCF7; assay: Growth inhibition of human MCF7 cells after 48 hrs by SRB assay; type: functional; details: MCF7, 48 h
[4] = tested on: MDA-MB-231; assay: Growth inhibition of human MDA-MB-231 cells after 48 hrs by SRB assay; type: functional; details: MDA-MB-231, 48 h
[5] = Growth inhibition of human Hs578T cells after 48 hrs by SRB assay; type: functional; details: Hs-578T
[6] = Growth inhibition of human BT549 cells after 48 hrs by SRB assay; type: functional; details: BT-549, 48 h
[7] = tested on: T47D; assay: Growth inhibition of human T47D cells after 48 hrs by SRB assay; type: functional
[8] = tested on: MDA-MB-468; assay: Growth inhibition of human MDA-MB-468 cells after 48 hrs by SRB assay; type: functional; details: MDA-MB-468, 48 h
[9] = Growth inhibition of human LOXIMVI cells after 48 hrs by SRB assay; type: functional; details: LOX IMVI
[10] = tested on: Malme-3M; assay: Growth inhibition of human MALME-3M cells after 48 hrs by SRB assay; type: functional
[11] = tested on: M14; assay: Growth inhibition of human M14 cells after 48 hrs by SRB assay; type: functional; details: M14, 48 h
[12] = tested on: MDA-MB-435; assay: Growth inhibition of human MDA-MB-435 cells after 48 hrs by SRB assay; type: functional; details: MDA-MB-435, 48 h
[13] = tested on: SK-MEL-2; assay: Growth inhibition of human SK-MEL-2 cells after 48 hrs by SRB assay; type: functional; details: SK-MEL-2, 48 h
[14] = tested on: SK-MEL-28; assay: Growth inhibition of human SK-MEL-28 cells after 48 hrs by SRB assay; type: functional; details: SK-MEL-28, 48 h
[15] = tested on: SK-MEL-5; assay: Growth inhibition of human SK-MEL-5 cells after 48 hrs by SRB assay; type: functional; details: SK-MEL-5, 48 h
[16] = Growth inhibition of human UACC62 cells after 48 hrs by SRB assay; type: functional; details: UACC-62, 48 h
[17] = Growth inhibition of human UACC257 cells after 48 hrs by SRB assay; type: functional; details: UACC-257, 48 h
[18] = tested on: MCF7; assay: Growth inhibition of human MCF7 cells assessed as cell viability at 4 uM after 24 hrs by MTT assay; type: functional, cell-based
[19] = tested on: MCF7; assay: Cell cycle arrest in human MCF7 cells assessed as accumulation at G0/G1 phase at 4 uM after 24 hrs by propidium iodide staining-based flow cytometry (reference value: 64.04%); type: functional
[20] = tested on: MCF7; assay: Cell cycle arrest in human MCF7 cells assessed as accumulation at S phase at 4 uM after 24 hrs by propidium iodide staining-based flow cytometry (reference value: 20.17%); type: functional
[21] = tested on: MCF7; assay: Cell cycle arrest in human MCF7 cells assessed as accumulation at G2/M phase at 4 uM after 24 hrs by propidium iodide staining-based flow cytometry (reference value: 15.79%); type: functional
[22] = tested on: CCRF-CEM; assay: Growth inhibition of human CCRF-CEM cells after 48 hrs by SRB assay; type: functional
[23] = tested on: HL-60(TB); assay: Growth inhibition of human HL-60(TB) cells after 48 hrs by SRB assay; type: functional; details: HL-60, 48 h
[24] = tested on: K562; assay: Growth inhibition of human K562 cells after 48 hrs by SRB assay; type: functional; details: K562, 48 h
[25] = Growth inhibition of human MOLT4 cells after 48 hrs by SRB assay; type: functional; details: MOLT-4, 48 h
[26] = tested on: SR; assay: Growth inhibition of human SR cells after 48 hrs by SRB assay; type: functional
[27] = tested on: RPMI-8226; assay: Growth inhibition of human RPMI8226 cells after 48 hrs by SRB assay; type: functional; details: RPMI-8226, 48 h
[28] = tested on: A549; assay: Growth inhibition of human A549 cells after 48 hrs by SRB assay; type: functional; details: A549, 48 h
[29] = Growth inhibition of human EKVX cells after 48 hrs by SRB assay; type: functional
[30] = tested on: HOP-62; assay: Growth inhibition of human HOP62 cells after 48 hrs by SRB assay; type: functional; details: HOP-62, 48 h
[31] = Growth inhibition of human HOP92 cells after 48 hrs by SRB assay; type: functional; details: HOP-92, 48 h
[32] = tested on: NCI-H226; assay: Growth inhibition of human NCI-H226 cells after 48 hrs by SRB assay; type: functional; details: NCI-H226, 48 h
[33] = tested on: NCI-H23; assay: Growth inhibition of human NCI-H23 cells after 48 hrs by SRB assay; type: functional; details: NCI-H23, 48 h
[34] = tested on: NCI-H322M; assay: Growth inhibition of human NCI-H322M cells after 48 hrs by SRB assay; type: functional
[35] = tested on: NCI-H460; assay: Growth inhibition of human NCI-H460 cells after 48 hrs by SRB assay; type: functional; details: NCI-H460, 48 h
[36] = tested on: NCI-H522; assay: Growth inhibition of human NCI-H522 cells after 48 hrs by SRB assay; type: functional; details: NCI-H522, 48 h
[37] = tested on: COLO 205; assay: Growth inhibition of human COLO205 cells after 48 hrs by SRB assay; type: functional; details: COLO 205, 48 h
[38] = Growth inhibition of human HCC2998 cells after 48 hrs by SRB assay; type: functional; details: HCC 2998, 48 h
[39] = tested on: HCT-116; assay: Growth inhibition of human HCT116 cells after 48 hrs by SRB assay; type: functional; details: HCT-116, 48 h
[40] = Growth inhibition of human HCT15 cells after 48 hrs by SRB assay; type: functional; details: HCT-15, 48 h
[41] = tested on: HT-29; assay: Growth inhibition of human HT-29 cells after 48 hrs by SRB assay; type: functional; details: HT-29, 48 h
[42] = tested on: KM12; assay: Growth inhibition of human KM12 cells after 48 hrs by SRB assay; type: functional; details: KM12, 48 h
[43] = tested on: SW-620; assay: Growth inhibition of human SW620 cells after 48 hrs by SRB assay; type: functional; details: SW-620, 48 h
[44] = tested on: SF-268; assay: Growth inhibition of human SF268 cells after 48 hrs by SRB assay; type: functional; details: SF-268, 48 h
[45] = Growth inhibition of human SF295 cells after 48 hrs by SRB assay; type: functional; details: SF-295, 48 h
[46] = Growth inhibition of human SF539 cells after 48 hrs by SRB assay; type: functional; details: SF-539, 48 h
[47] = tested on: SNB-19; assay: Growth inhibition of human SNB19 cells after 48 hrs by SRB assay; type: functional; details: SNB-19, 48 h
[48] = tested on: SNB-75; assay: Growth inhibition of human SNB75 cells after 48 hrs by SRB assay; type: functional; details: SNB-75, 48 h
[49] = tested on: U-251; assay: Growth inhibition of human U251 cells after 48 hrs by SRB assay; type: functional; details: U-251, 48 h
[50] = tested on: IGROV-1; assay: Growth inhibition of human IGROV1 cells after 48 hrs by SRB assay; type: functional; details: IGROV-1, 48 h
[51] = Growth inhibition of human OVCAR3 cells after 48 hrs by SRB assay; type: functional; details: OVCAR-3, 48 h
[52] = Growth inhibition of human OVCAR4 cells after 48 hrs by SRB assay; type: functional; details: OVCAR-4, 48 h
[53] = Growth inhibition of human OVCAR5 cells after 48 hrs by SRB assay; type: functional; details: OVCAR-5, 48 h
[54] = Growth inhibition of human OVCAR8 cells after 48 hrs by SRB assay; type: functional; details: OVCAR-8, 48 h
[55] = Growth inhibition of human NCI-ADR-RES cells after 48 hrs by SRB assay; type: functional
[56] = tested on: SK-OV-3; assay: Growth inhibition of human SKOV3 cells after 48 hrs by SRB assay; type: functional; details: SK-OV-3, 48 h
[57] = tested on: 786-0; assay: Growth inhibition of human 786-0 cells after 48 hrs by SRB assay; type: functional; details: 786-0, 48 h
[58] = tested on: A498; assay: Growth inhibition of human A498 cells after 48 hrs by SRB assay; type: functional; details: A498, 48 h
[59] = tested on: ACHN; assay: Growth inhibition of human ACHN cells after 48 hrs by SRB assay; type: functional
[60] = tested on: CAKI-1; assay: Growth inhibition of human Caki1 cells after 48 hrs by SRB assay; type: functional; details: CAKI-1, 48 h
[61] = Growth inhibition of human RXF393 cells after 48 hrs by SRB assay; type: functional; details: RXF 393, 48 h
[62] = tested on: SN12C; assay: Growth inhibition of human SN12C cells after 48 hrs by SRB assay; type: functional
[63] = tested on: TK-10; assay: Growth inhibition of human TK10 cells after 48 hrs by SRB assay; type: functional; details: TK-10, 48 h
[64] = Growth inhibition of human UO31 cells after 48 hrs by SRB assay; type: functional; details: UO-31, 48 h

## COc1ccc(-c2nc3ccccn3c2/C=C/C(=O)c2cc(OC)c(OC)c(OC)c2)cc1
[1]
  GI50: 19.8 µM
[2]
  GI50: 7.21 µM
[3]
  GI50: 2.38 µM
[4]
  GI50: 5.22 µM
[5]
  GI50: 2.89 µM
[6]
  GI50: 3.27 µM
[7]
  GI50: 2.59 µM
[8]
  GI50: 11.9 µM
[9]
  GI50: 6.05 µM
[10]
  GI50: 1.56 µM
[11]
  GI50: 9.8 µM
[12]
  GI50: 5.76 µM
[13]
  GI50: 4.95 µM
[14]
  GI50: 7.1 µM
[15]
  GI50: 2.72 µM
[16]
  GI50: 5.58 µM
[17]
  GI50: 5.85 µM
[18]
  inhibition: Active
[19]
  Activity: 85.55%
[20]
  Activity: 11.65%
[21]
  Activity: 2.8%
[22]
  GI50: 18.8 µM
[23]
  GI50: 34 µM
[24]
  GI50: 13.1 µM
[25]
  GI50: 32.9 µM
[26]
  GI50: 3.71 µM
[27]
  GI50: 7.5 µM
[28]
  GI50: 7.96 µM
[29]
  GI50: 7.42 µM
[30]
  GI50: 3.62 µM
[31]
  GI50: 2.36 µM
[32]
  GI50: 24.1 µM
[33]
  GI50: 3.41 µM
[34]
  GI50: 4.63 µM
[35]
  GI50: 4.09 µM
[36]
  GI50: 3.12 µM
[37]
  GI50: 3.5 µM
[38]
  GI50: 8.27 µM
[39]
  GI50: 2.26 µM
[40]
  GI50: 4.85 µM
[41]
  GI50: 4.8 µM
[42]
  GI50: 4.99 µM
[43]
  GI50: 4.16 µM
[44]
  GI50: 4 µM
[45]
  GI50: 15.2 µM
[46]
  GI50: 2.39 µM
[47]
  GI50: 25.2 µM
[48]
  GI50: 5.49 µM
[49]
  GI50: 3 µM
[50]
  GI50: 8.86 µM
[51]
  GI50: 2.88 µM
[52]
  GI50: 5.72 µM
[53]
  GI50: 9.33 µM
[54]
  GI50: 3.92 µM
[55]
  GI50: 3.36 µM
[56]
  GI50: 14.8 µM
[57]
  GI50: 3.9 µM
[58]
  GI50: 10.4 µM
[59]
  GI50: 3.26 µM
[60]
  GI50: 8.33 µM
[61]
  GI50: 2.94 µM
[62]
  GI50: 11.4 µM
[63]
  GI50: 4.16 µM
[64]
  GI50: 1.31 µM
